BindingDB's records for doi:10.1021/jm049478u (Johnson & Johnson Pharmaceutical Research & Development, 2005)
pIC50: −log10 of the molar value.

Target: Glycogen synthase kinase-3 beta (Oryctolagus cuniculus)
Assay: Inhibition of rabbit Glycogen synthase kinase-3 beta

CN(C)CCCn1nc(C2=C(c3cn(-c4ccccc4)c4ccccc34)C(=O)NC2=O)c2ccccc21 [3-[1-(3-Dimethylamino-propyl)-1H-indazol-3-yl]-4-(1-phenyl-1H-indol-3-yl)-pyrrole-2,5-dione]
pIC50: 6.57
